According to patent USRE32935E, “Non-toxic organotin stabilizers for vinyl chloride polymers” (M&T Chemicals, Inc., priority 1985, dated 1989):
Read-outs that look alike come from different tables or passages of the source.

Legend:
[1] = test system: beagle dogs; experiment: 13 week feeding study in beagle dogs; type: in vivo, dog
Protocol: A second feeding study was conducted for a period of 13 weeks using beagle dogs to determine the maximum concentration of the mono-n-octyltin mercaptoacetic acid esters of this invention which can be present in the food of these animals without causing any observable toxicological effect. This concentration level is referred to as the "no-effect level" by the United States Food and Drug Administration. A stabilizer of this invention mono-n-octyltin S,S',S"-tris(isooctylmercaptoacetate) was added to the food consumed by the dogs in amounts of 0, 100, 300 and 1,000 parts per million. […] This level of toxicity is considered to be unexpectedly low for an organotin compound.
The criteria employed to determine the absence of toxicological effects included general appearance, health, growth and food intake; blood analyses for enzyme activity and serum protein; kidney damage by urine analysis; change in weight of internal organs and presence of the tin compound in the kidneys, bones, brain, liver and blood.

[2] = test system: albino rats; experiment: acute oral median lethal dose in young male albino rats; type: in vivo, rat
Protocol: Young albino rats were used as the test animals. All animals were kept under observation for five days prior to experimental use, during which period they were checked for general physical health and suitability as test animals. The animals were housed in stock cages and were permitted a standard laboratory diet plus water ad libitum, except during the 16-hour period immediately prior to oral intubation, when food was withheld.
Selected groups of four male albino rats each were administered the undiluted test material at dose levels of 900, 1350, 2,025 and 3,038 mg. per kilogram of body weight. All doses were administered directly into the stomachs of the rats using a hypodermic syringe equipped with a ball-tipped intubating needle.
After oral administration of the test material, the rats were housed individually in suspended, wire-mesh cages and observed for the following 14 days. A necropsy was conducted on any animal which died during the study and on all animals sacrificed at the end of the 14-day observation period.
The acute oral median lethal dose (LD50) was calculated using the techniques of Weil, Thompson and Thompson and Weil as reported in the following references: […]

[3] = migration from milled/pressed polyvinyl chloride sheet into extractants (colorimetric tin analysis); type: physicochemical; conditions: 10 days, 40° C; distilled water, 3% acetic acid, peanut oil, 10% ethanol; 1.5 parts stabilizer
Protocol: A mixture containing 100 parts of a commercially available vinyl chloride homopolymer(Solvic 223), 0.02 part of a half glycol ester -half calcium soap of montanic acid (available as Hoechst Wax OP) together with 1.5 parts of mono-n-octyltin-S,S',S"-tris(isooctylmercaptoacetate) was blended by placing the components on a 2-roll mill wherein the roll temperature was between 160° and 170° C. During the three minute milling period a continuous sheet formed around one of the rollers and was removed. The sheet measured 1.3 m.m. in thickness and about 300 cm.^2 in area. The sheet was pressed at a temperature of 170° C. to obtain a thickness of 1.2 m.m. The total pressing time, including a two minute preheating period, was five minutes. Square samples measurng 30 cm.^2 in total surface area were immersed in one of the extractants for 10 days, during which time the temperature of the extractant was maintained at 40° C. The extractants employed were distilled water, a 3% aqueous solution of acetic acid, peanut oil and a 10% by weight aqueous solution of ethanol. […] The quantity of peanut oil was 30 c.c.
The migration of stabilizer from the polyvinyl chloride sample into the extractant was determined by measuring the concentration of tin in the extractant using colormetric analysis of the tin - pyrocatechol violet complex. […]

[4] = extraction of tin from blow molded vinyl chloride polymer bottles; type: physicochemical; conditions: 49° C
Protocol: A number of 16 ounce (475 cc) capacity cylindrical bottles were prepared by blow molding using the following formulation: […]
The three stabilizers evaluated were n-octyltin-S,S',S"-tri(isooctyl mercaptoacetate), di-n-octyltin-S,S'-bis(isooctyl mercaptoacetate) and a mixture containing equal parts by weight of these two compounds.
The bottles were filled with the desired extractant and then placed in an oven maintained at a temperature of 49° C. for the time periods specified in the following table. A portion of the contents of the bottle was then analyzed to determine the concentration of tin.

[5] = relative acute toxicity of the isooctylmercaptoacetate derivatives; type: in vivo
Excerpt: This is contrary to the generally accepted, although inaccurate, generalization that a monoalkyltin compound is less toxic than the corresponding di- and trialkyltin compounds. […] This finding directly contradicts data concerning the relative toxicities of mono-, di- and triorganotin compounds that were published prior to March, 1973, the filing date of Applicant's earliest application disclosing the present stabilizer compositions.

[6] = test system: rats; conditions: force-feeding, table of Neumann; cited from earlier work
[7] = compared with di- and trioctyltin chlorides, cited from earlier work
[8] = prior art statements; cited from earlier work
[9] = 3% Acetic Acid (aqueous), 24 hours
[10] = 3% Acetic Acid (aqueous), 48 hours
[11] = 3% Acetic Acid (aqueous), 72 hours

Molecule | Tin Content [4, 9] [ppm] | Tin Content [4, 10] [ppm] | Tin Content [4, 11] [ppm] | Tin Content ([4]; 8% Ethanol (aqueous), 24 hours) [ppm] | Tin Content ([4]; 50% Ethanol, 24 hours) [ppm] | Tin Content ([4]; 50% Ethanol, 48 hours) [ppm] | Tin Content ([4]; 50% Ethanol, 72 hours) [ppm] | Tin Content ([4]; Distilled Water, 72 hours) [ppm] | Tin Content ([4]; Distilled Water, 96 hours) [ppm] | Tin Content ([4]; Distilled Water, 120 hours) [ppm] | Tin Content ([4]; Heptane, 6 hours) [ppm] | Tin Content ([4]; Heptane, 8 hours) [ppm] | Tin Content ([4]; Heptane, 10 hours) [ppm] | LD50 (lethal dose for 1/2 the population) [6] | further results
CCCCCCC[CH2][Sn]([S]CC(=O)OCCCCCC(C)C)([S]CC(=O)OCCCCCC(C)C)[S]CC(=O)OCCCCCC(C)C [A, mono-n-octyltin-S,S',S"--tris(isooctyl mercaptoacetate)] | 0.02 | 0.03 | 0.02 | 0.00 | 0.01 | 0.02 | 0.02 | 0.00 | 0.00 | 0.00 | 0.02 | 0.03 | 0.03 | – | no-effect level ([1]; beagle dogs, 13 weeks, in food): 300 parts per million; no effect level (in words) ([1]; long term feeding studies): sufficiently low; acute oral median lethal dose (LD50) ([2]; male albino rats, oral intubation, undiluted, 14 days observation): 2.48 g. per kilogram of weight; LD50 relative to other conventional organotin stabilizers (in words) ([2]; vs other conventional organotin compounds employed as non-toxic stabilizers): considerably higher than the values for other conventional organotin compounds; amount of stabilizer extracted [3]: ≤ 0.05 mg. per square decimeter; relative acute toxicity (in words) ([5]; isooctylmercaptoacetate derivatives, mono- vs di- and tri-n-octyltin): the least toxic; toxicity relative to corresponding di-n-octyltin compound (in words) ([5]; vs di-n-octyltin compound of Gloskey patent): less toxic than the corresponding di-n-octyltin compound
CCCCCCC[CH2][Sn]([CH2]CCCCCCC)([S]CC(=O)OCCCCCC(C)C)[S]CC(=O)OCCCCCC(C)C [B, di-n-octyltin-S,S'--bis(isooctyl mercaptoacetate), reference compound] | 0.00 | 0.00 | 0.00 | 0.00 | 0.03 | 0.05 | 0.03 | 0.00 | 0.00 | 0.00 | 0.03 | 0.02 | 0.02 | 1975 mg per kilogram of body weight | –
CCCCCCC[CH2][Sn]([Cl])([Cl])[Cl] [monooctyltin trichloride] | – | – | – | – | – | – | – | – | – | – | – | – | – | – | acute oral toxicity (relative, in words) [7]: greater than the toxicity of either dioctyltin dichloride or trioctyltin chloride; acute oral toxicity (relative, in words) ([7]; listed as mono-n-octyltin trichloride): significantly more severe than the corresponding di- or tri-n-octyltin chlorides
[Cl][Sn][Cl] [stannous chloride] | – | – | – | – | – | – | – | – | – | – | – | – | – | – | toxicity (in words) [8]: relatively little, if any, toxicity
bis(tri-n-octyltin) sulfate | – | – | – | – | – | – | – | – | – | – | – | – | – | greater than 6,000 mg per kilogram of body weight | –
di-n-octyltin maleate | – | – | – | – | – | – | – | – | – | – | – | – | – | 4,500 mg per kilogram of body weight | –
